Each compound was assayed against Metabotropic glutamate receptor 2 (Rattus norvegicus, UniProt P31421) (assay: Inhibition of 1S,3R-ACPD (10 uM) -stimulated GTP gamma 35S binding on rat Metabotropic glutamate receptor 2 transfected in CHO cells).
Sequence of Metabotropic glutamate receptor 2 (P31421 whole entry): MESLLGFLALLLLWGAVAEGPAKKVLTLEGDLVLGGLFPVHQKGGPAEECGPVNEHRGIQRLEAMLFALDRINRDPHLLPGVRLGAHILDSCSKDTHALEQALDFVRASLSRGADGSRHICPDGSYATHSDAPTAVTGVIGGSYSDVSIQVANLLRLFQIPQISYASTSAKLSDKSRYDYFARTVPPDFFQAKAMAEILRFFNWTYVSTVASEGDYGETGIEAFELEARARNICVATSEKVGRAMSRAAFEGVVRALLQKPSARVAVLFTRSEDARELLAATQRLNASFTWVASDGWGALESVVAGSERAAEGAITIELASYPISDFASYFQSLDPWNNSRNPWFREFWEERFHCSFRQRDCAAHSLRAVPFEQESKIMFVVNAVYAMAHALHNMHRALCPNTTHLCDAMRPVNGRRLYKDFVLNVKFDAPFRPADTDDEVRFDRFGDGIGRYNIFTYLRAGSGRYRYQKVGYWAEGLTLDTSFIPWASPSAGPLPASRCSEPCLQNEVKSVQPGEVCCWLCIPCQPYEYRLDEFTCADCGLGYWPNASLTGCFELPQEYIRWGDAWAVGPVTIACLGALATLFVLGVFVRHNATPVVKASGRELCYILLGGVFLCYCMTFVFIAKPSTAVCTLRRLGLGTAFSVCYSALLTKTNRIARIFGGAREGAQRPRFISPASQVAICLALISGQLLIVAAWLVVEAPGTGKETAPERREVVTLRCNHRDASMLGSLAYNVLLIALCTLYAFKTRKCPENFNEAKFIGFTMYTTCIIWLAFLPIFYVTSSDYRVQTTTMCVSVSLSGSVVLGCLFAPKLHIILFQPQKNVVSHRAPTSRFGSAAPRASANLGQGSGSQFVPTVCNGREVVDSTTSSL
Format: cell-based
`CCOC(=O)C1=C(C)N=C2SC(c3c(Cl)cccc3Cl)=CN2C1c1ccccc1OC` (stereo unspecified) was tested, and the Ki was 4 µM.
`COc1ccccc1C1C(C(=O)OCCN(C)C)=C(C)N=C2SC(c3c(Cl)cccc3Cl)=CN21` (stereo unspecified) gave a Ki of 1.5 µM.
`COc1ccccc1C1C(C(=O)OCCN(C)C)=C(C)N=C2SC(c3ccc(Cl)cc3Cl)=CN21` (stereo unspecified) gave a Ki of 1 µM.
`COc1ccccc1C1C(C(=O)OCCN(C)C)=C(C)N=C2SC(c3ccc(Cl)cc3)=CN21` (stereo unspecified) was tested, and the Ki was 4 µM.
In the case of `CC1=C(C(=O)OCCN(C)C)C(c2ccccc2F)N2C=C(c3c(Cl)cccc3Cl)SC2=N1` (stereo unspecified), the Ki is reported as 3.2 µM.
Compound `COc1ccccc1C1C(C(=O)OCCN(C)C)=C(C(C)C)N=C2SC(c3c(Cl)cccc3Cl)=CN21` (stereo unspecified) has a Ki of 4 µM.
`CC1=C(C(=O)OCCN(C)C)C(c2ccccc2C)N2C=C(c3c(Cl)cccc3Cl)SC2=N1` (stereo unspecified) showed a Ki of 8 µM.
Work on `CCC1=C(C(=O)OCCN(C)C)C(c2ccccc2OC)N2C=C(c3c(Cl)cccc3Cl)SC2=N1` (stereo unspecified) yielded a Ki of 1 µM.
`COc1ccccc1C1C(C(=O)OCCCN(C)C)=C(C)N=C2SC(c3c(Cl)cccc3Cl)=CN21` (stereo unspecified) was tested, and the Ki was 2.4 µM.
With `COc1cccc(C2C(C(=O)OCCN(C)C)=C(C)N=C3SC(c4c(Cl)cccc4Cl)=CN32)c1` (stereo unspecified) the Ki was 2 µM.
For `CC1=C(C(=O)OCCN(C)C)C(c2ccccc2OC(C)C)N2C=C(c3c(Cl)cccc3Cl)SC2=N1` (stereo unspecified), the Ki was 2 µM.
In the case of `CC1=C(C(=O)OCCN(C)C)C(c2ccccc2Cl)N2C=C(c3c(Cl)cccc3Cl)SC2=N1` (stereo unspecified), the Ki is reported as 2 µM.
Work on `COc1ccccc1C1C(C(=O)NCCN(C)C)=C(C)N=C2SC(c3c(Cl)cccc3Cl)=CN21` (stereo unspecified) yielded a Ki of over 10 µM.
In the case of `COc1ccc(C2C(C(=O)OCCN(C)C)=C(C)N=C3SC(c4c(Cl)cccc4Cl)=CN32)cc1` (stereo unspecified), the Ki is reported as 7 µM.
For `CCOc1ccccc1C1C(C(=O)OCCN(C)C)=C(C)N=C2SC(c3c(Cl)cccc3Cl)=CN21` (stereo unspecified), the Ki was 3 µM.
`COc1ccccc1C1C(C(=O)OCCN(C)C)=C(C(=O)c2ccccc2)N=C2SC(c3c(Cl)cccc3Cl)=CN21` (stereo unspecified) gave a Ki of over 10 µM.
